Experimental data taken from the supplement of paper PMC10307832.

How the values were obtained:
Experiment in all cases: relative viability (nuclei count vs DMSO), 5 days (fraction); higher = more cells survive
Tivantinib + Foretinib = compound: O=C1NC(=O)[C@@H](c2cn3c4c(cccc24)CCC3)[C@@H]1c1c[nH]c2ccccc12 [Tivantinib] + COc1cc2c(Oc3ccc(NC(=O)C4(C(=O)Nc5ccc(F)cc5)CC4)cc3F)ccnc2cc1OCCCN1CCOCC1 [Foretinib] (partner 0.25 µM)
How it was run: (§1)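 Five library-drug doses in √10 steps were combined with a fixed anchor-drug dose, or a single drug was given alone, by pin tool to lung cancer cell lines in 1536-well plates the day after seeding. Nuclei were stained and counted after 5 days. Relative viability is the nuclei count in treated wells over that in vehicle wells, taken as the median of duplicate plates.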

Crenolanib + Pemetrexed = compound: CC1(COc2ccc3c(c2)ncn3-c2ccc3cccc(N4CCC(N)CC4)c3n2)COC1 [Crenolanib] + Nc1nc2[nH]cc(CCc3ccc(C(=O)N[C@@H](CCC(=O)O)C(=O)O)cc3)c2c(=O)[nH]1 [Pemetrexed] (partner 0.2 µM)
How it was run: as §1

Tivantinib + Pemetrexed = compound: O=C1NC(=O)[C@@H](c2cn3c4c(cccc24)CCC3)[C@@H]1c1c[nH]c2ccccc12 [Tivantinib] + Nc1nc2[nH]cc(CCc3ccc(C(=O)N[C@@H](CCC(=O)O)C(=O)O)cc3)c2c(=O)[nH]1 [Pemetrexed] (partner 0.2 µM)
How it was run: as §1

Tivantinib + Trametinib = compound: O=C1NC(=O)[C@@H](c2cn3c4c(cccc24)CCC3)[C@@H]1c1c[nH]c2ccccc12 [Tivantinib] + CC(=O)Nc1cccc(-n2c(=O)n(C3CC3)c(=O)c3c(Nc4ccc(I)cc4F)n(C)c(=O)c(C)c32)c1 [Trametinib] (partner 0.02 µM)
How it was run: as §1

| Cell Line | relative viability (Tivantinib + Foretinib; first compound 0.01 µM) | relative viability (Tivantinib + Foretinib; first compound 0.03162 µM) | relative viability (Tivantinib + Foretinib; first compound 0.1 µM) | relative viability (Tivantinib + Foretinib; first compound 0.3162 µM) | relative viability (Crenolanib + Pemetrexed; first compound 0.01 µM) | relative viability (Crenolanib + Pemetrexed; first compound 0.03162 µM) | relative viability (Crenolanib + Pemetrexed; first compound 0.1 µM) | relative viability (Crenolanib + Pemetrexed; first compound 0.3162 µM) | relative viability (Crenolanib + Pemetrexed; first compound 1 µM) | relative viability (Tivantinib + Pemetrexed; first compound 0.01 µM) | relative viability (Tivantinib + Pemetrexed; first compound 0.03162 µM) | relative viability (Tivantinib + Pemetrexed; first compound 0.1 µM) | relative viability (Tivantinib + Trametinib; first compound 0.01 µM) | relative viability (Tivantinib + Trametinib; first compound 0.03162 µM) | relative viability (Tivantinib + Trametinib; first compound 0.1 µM) | relative viability (Tivantinib + Pemetrexed; first compound 0.3162 µM) | relative viability (Tivantinib + Trametinib; first compound 0.3162 µM) |
| --- | --- | --- | --- | --- | --- | --- | --- | --- | --- | --- | --- | --- | --- | --- | --- | --- | --- |
| ABC-1 | 0.936 | 0.995 | 1.09 | 1.15 | – | – | – | – | – | – | – | – | – | – | – | – | – |
| NCI-H2170 | 0.975 | 0.929 | 1.02 | – | 0.366 | 0.266 | 0.276 | 0.286 | 0.271 | 0.288 | 0.285 | 0.244 | 0.934 | 0.847 | 0.844 | – | – |
| NCI-H1355 | 1.08 | 1.03 | 0.995 | 0.915 | 1.07 | 1.12 | 0.947 | 1.13 | 1.01 | 1.03 | 1.01 | 1 | 0.476 | 0.412 | 0.469 | 1.03 | 0.367 |
| EBC-1 | 0.117 | 0.107 | 0.0799 | 0.0958 | – | – | – | – | – | – | – | – | – | – | – | – | – |
| NCI-H2405 | 1.16 | 1.07 | 1.05 | 0.98 | 1.11 | – | 0.869 | 1.11 | 1.06 | 1.12 | 1.25 | 1.09 | 0.771 | 0.63 | 0.615 | 1.05 | 0.597 |
| NCI-H2009 | 1.23 | 1.22 | 1.21 | 1.27 | 1 | 1.06 | 1.07 | 0.966 | 0.847 | 1.01 | 1.12 | 1.04 | 0.328 | 0.246 | 0.273 | 1.08 | 0.238 |
| NCI-H441 | 0.749 | 1.1 | 1.01 | 0.876 | 0.261 | 0.278 | 0.269 | 0.312 | 0.273 | 0.294 | 0.254 | 0.254 | 0.476 | 0.405 | 0.448 | 0.282 | 0.352 |
| PC-14 | 0.93 | 0.893 | 0.984 | 1.05 | 0.137 | 0.127 | 0.16 | 0.133 | 0.143 | 0.142 | 0.123 | 0.147 | 0.671 | 0.811 | 0.753 | 0.103 | 0.452 |
| HCC-15 | 1.04 | 1.01 | 0.991 | 0.986 | 0.23 | 0.215 | 0.227 | 0.228 | 0.213 | 0.215 | 0.221 | 0.227 | 0.387 | 0.371 | 0.36 | 0.224 | 0.337 |
| NCI-H2126 | 1.16 | 1.12 | 1.04 | 0.829 | 0.725 | 0.678 | 0.694 | 0.715 | 0.605 | 0.677 | 0.633 | 0.706 | 0.522 | 0.549 | 0.573 | 0.547 | 0.545 |
| NCI-H1563 | 0.98 | 0.892 | 0.819 | 0.783 | 0.736 | 0.679 | 0.711 | 0.759 | 0.742 | 0.558 | 0.703 | 0.715 | – | – | – | 0.624 | – |
| NCI-H2342 | 1.08 | 1.15 | 0.948 | 0.682 | 0.749 | 0.72 | 0.691 | 0.771 | 0.754 | 0.761 | 0.849 | 0.771 | 0.749 | 0.764 | 0.782 | 0.681 | 0.665 |
| NCI-H1915 | 1.11 | 1.06 | 1.08 | 1.07 | 0.536 | 0.481 | 0.511 | 0.528 | 0.531 | 0.423 | 0.482 | 0.495 | 0.287 | 0.294 | 0.282 | 0.53 | 0.276 |
| ChaGo-K-1 | 0.846 | 0.904 | 0.838 | 0.559 | 0.26 | 0.256 | 0.255 | 0.253 | 0.27 | 0.264 | 0.254 | 0.264 | 0.894 | 0.88 | 0.867 | 0.251 | 0.842 |
| NCI-H661 | 1.01 | 1.04 | 0.968 | 0.686 | 0.959 | 0.903 | 0.925 | 0.966 | 0.979 | 0.922 | 0.961 | 0.975 | 0.602 | 0.561 | 0.536 | 0.844 | 0.355 |
| COR-L23 | 1.01 | 0.953 | 0.893 | 1.04 | 0.185 | 0.189 | 0.201 | 0.199 | 0.202 | 0.194 | 0.195 | 0.204 | 0.634 | 0.558 | 0.545 | 0.195 | 0.661 |
| COR-L 105 | 0.834 | 0.991 | 0.982 | 0.735 | 1.25 | 1.09 | 1.09 | 1.14 | 1.1 | 1.02 | 1.05 | 1.08 | 0.425 | 0.412 | 0.455 | 0.696 | 0.356 |
| LK-2 | 1.48 | – | 1.16 | 0.929 | 0.314 | 0.268 | 0.263 | 0.27 | 0.274 | 0.261 | 0.286 | 0.276 | 0.723 | 0.454 | 0.683 | 0.244 | 0.518 |
| A549 | 0.977 | 1.03 | 0.913 | 0.889 | – | – | – | – | – | – | – | – | – | – | – | – | – |
| NCI-H1299 | 1.1 | 1.04 | 1.04 | 1.07 | – | – | – | – | – | – | – | – | – | – | – | – | – |
| NCI-H1792 | – | – | – | – | 0.738 | 0.853 | 0.8 | 0.968 | 0.803 | 0.965 | – | 0.81 | 0.421 | – | 0.394 | 0.725 | 0.37 |
| IA-LM | 1.01 | 1.15 | 0.983 | 1.12 | – | – | – | – | – | – | – | – | – | – | – | – | – |
| NCI-H1648 | – | – | – | – | 0.742 | – | 0.821 | 0.699 | 0.716 | – | 0.67 | 0.722 | – | 0.505 | 0.343 | 0.486 | 0.31 |
